Experimental data: patent US20100204460A1, “NATURAL BRASSINOSTEROIDS FOR USE FOR TREATING HYPERPROLIFERATION, TREATING PROLIFERATIVE DISEASES AND REDUCING ADVERSE EFFECTS OF STEROID DYSFUNCTION IN MAMMALS, PHARMACEUTICAL COMPOSITION AND ITS USE” (priority 2007, published 2010)
Entries after “also recorded” stand apart in the source; their conditions may differ. Like-named read-outs stand apart in the source and are kept apart here.

Experiments:
[1] = tested on: T-lymphoblastic leukaemia cell line CEM; assay: Calcein AM cytotoxicity assay, CEM; type: cell-based; conditions: read-out: IC50 assessed by Calcein AM assay of surviving cells
[2] = tested on: multiple myeloma cell line RPMI 8226; assay: Calcein AM cytotoxicity assay, RPMI 8226; type: cell-based; conditions: exposure 72 h (b71 says 96 h), mean ± SD
[3] = tested on: malignant human melanoma cell line G361; assay: Calcein AM cytotoxicity assay, G 361; type: cell-based
[4] = tested on: normal human fibroblasts (BJ); assay: Calcein AM cytotoxicity assay, BJ; type: cell-based; conditions: read-out: IC50 assessed by Calcein AM assay of surviving cells
[5] = tested on: herpes simplex virus type 1 (HSV-1); conditions: cited from earlier work
arena viruses = conditions: cited from earlier work
measles virus (MV) = conditions: cited from earlier work
[6] = tested on: normal and cancer cell lines of different histopathological origin; assay: Calcein AM cytotoxicity assay, summary statements over the cell line panel; type: cell-based; conditions: for cytotoxic / growth inhibitory activity in words: tested in amounts up to 50 μmol/L per assay
Protocol: Stock solutions ([…]) were prepared by dissolving relevant quantity of substance in DMSO cultivation media (DMEM, RPMI 1640, F-12 medium), fetal bovine serum (FBS), L-glutamine, penicillin, and streptomycin were purchased from Sigma (MO, USA). 3-(4,5-Dimethylthiazol-2-yl)-2,5-diphenyltetrazolium bromide (MTT) was from Serva Electrophoresis (Heidelberg, Germany). Monoclonal mouse anti-bromodeoxyuridine (BrdU) intibody was obtained from DakoCytomation (Glostrup, Denmark). Calcein AM was obtained from PAA Laboratories GmbH (Pasching, Austria). The screening cell lines (T-lymphoblastic leukaemia cell line CEM; breast carcinoma cell line MCF-7 (estrogen-sensitive), breast adenocarcinoma cell line MDA-MB 468 (cell lines LNCaP (androgen-sensitive), prostate carcinoma cell line DU-145 ([…]), lung carcinoma cell line A-549, chronic myelogenous leukemia cell line K562, multiple myeloma cell line RPMI 8226, cervical carcinoma cell line HeLa, malignant human melanoma cell line G361, osteosarcoma cell line HOS, and normal human fibroblasts (BJ) were obtained from the American Type Culture Collection (Manassas, Va., USA). MCF-7 cells were cultured in F-12 medium (Sigma, MO, USA). LNCaP cells were cultured in RPMI 1640 medium (GIBCO, USA). All other cells were cultured in DMEM medium (Sigma, MO, USA). All used media were supplemented with 10% heat-inactivated fetal bovine serum, 2 mmol/L L-glutamine, 1% penicillin/streptomycin. The cell lines were maintained under standard cell culture conditions at 37° C. and 5% CO2 in a humid environment. Cells were subcultured twice or three times a week using the standard trypsinization procedure (Sigma, USA).
The cell suspension of approximate density of 1.25×10^5 cells/mL was redistributed into 96-well microtitre plates and after 12 h of stabilization the tested Brassinosteroids (BRs) were added in different concentrations. BRs were dissolved in DMSO. Control cultures were treated with DMSO alone. The final concentration of DMSO in the reaction mixture never exceeded 1%. Tested compounds in given concentrations were added at time zero in 20 μL aliquots to the microtiter plate wells. Usually, each test compound was evaluated at six 4-fold dilutions. In routine testing, the highest well concentration was 50 μmol, but it can be the matter of change dependent on the agent. Cultivation proceeds 96 h at 37° C., the cells were incubated with Calcein AM solution (Molecular Probes) for 1 h. Fluorescence (OD) of viable cells was quantified with Fluoroscan Ascent (Microsystems). The cell survival (IC50) was calculated using the following equation: IC50=(ODdrug exposed well/mean ODcontrol wells)×100%. Each compound was tested in triplicates and the test was repeated at least 3 times. The IC50 value, corresponding to drug concentration lethal to 50% of the tumor cells, was calculated from the obtained dose response curves.
We investigated effects of brassinosteroid on viability of normal and cancer cell lines of different histopathological origin. To evaluate the cytotoxic properties of several BRs and some related steroids, we used T-lymphoblastic leukaemia cell line CEM, breast carcinoma cell line MCF-7, lung carcinoma cell line A-549, chronic myeloid leukaemia cell line K562, multiple myeloma cell line RPMI 8226, cervical carcinoma cell line HeLa, malignant melanoma cell line G361, osteosarcoma cell line HOS, and normal human fibroblasts BJ. The cells were exposed to six 4-fold dilutions of each drug for 72 h to determinate number of surviving cells.

[7] = CEM, six 4-fold dilutions, exposure 72 h (b71 says 96 h), mean ± SD
[8] = RPMI 8226, read-out: IC50 assessed by Calcein AM assay of surviving cells
[9] = G 361, exposure 72 h (b71 says 96 h), mean ± SD, read-out: IC50 assessed by Calcein AM assay of surviving cells
[10] = BJ normal fibroblasts, exposure 72 h (b71 says 96 h), mean ± SD
[11] = Homo sapiens, RPMI-8226, read-out: IC50 assessed by Calcein AM assay of surviving cells, RPMI 8226
[12] = Homo sapiens, G-361, read-out: IC50 assessed by Calcein AM assay of surviving cells
[13] = Homo sapiens, RPMI-8226, RPMI 8226, read-out: IC50 assessed by Calcein AM assay of surviving cells
[14] = Homo sapiens, G 361, exposure 72 h (b71 says 96 h), mean ± SD, read-out: IC50 assessed by Calcein AM assay of surviving cells
[15] = Homo sapiens, Fibroblast, BJ normal fibroblasts, exposure 72 h (b71 says 96 h), mean ± SD

Structure (SMILES) | IC50 [1, 7] | IC50 [2, 8] | IC50 [3, 9] | IC50 [4, 10] | cytotoxic / growth inhibitory activity in words [6] | further results
CC(C)[C@@H](C)[C@H](O)[C@@H](O)[C@@H](C)[C@H]1CC[C@H]2[C@@H]3COC(=O)[C@H]4C[C@H](O)[C@H](O)C[C@]4(C)[C@H]3CC[C@]12C [22S,23S-24-Epibrassinolide] | > 50 µM | > 50 µM | > 50 µM | > 50 µM | – | –
CC[C@@H](C(C)C)[C@@H](O)[C@H](O)[C@@H](C)[C@H]1CC[C@H]2[C@@H]3COC(=O)[C@H]4C[C@H](O)[C@H](O)C[C@]4(C)[C@H]3CC[C@]12C [Brassinosteroid 2, 28-Homobrassinolide] | – | – | – | – | – | in vitro antiviral activity [5]: in vitro antiviral activity; in vitro antiviral activity (arena viruses): in vitro antiviral activity; in vitro antiviral activity (measles virus (MV)): in vitro antiviral activity
CC[C@@H](C(C)C)[C@H](O)[C@@H](O)[C@@H](C)[C@H]1CC[C@H]2[C@@H]3CC(=O)[C@H]4C[C@H](O)[C@H](O)C[C@]4(C)[C@H]3CC[C@]12C [22S,23S-28-Homocastasterone] | 24 ± 1.5 µM | 25 µM | 45 ± 2.2 µM | > 50 µM | – | –
CC(C)[C@@H](C)[C@H](O)[C@@H](O)[C@@H](C)[C@H]1CC[C@H]2[C@@H]3CC(=O)[C@H]4C[C@H](O)[C@H](O)C[C@]4(C)[C@H]3CC[C@]12C [22S,23S-24-Epicastasterone] | 49 ± 1.8 µM | > 50 µM | > 50 µM | > 50 µM | – | –
CC[C@H](/C=C/[C@@H](C)[C@H]1CC[C@H]2[C@@H]3CC=C4C[C@@H](O)CC[C@]4(C)[C@H]3CC[C@]12C)C(C)C [Stigmasterol] | – | – | – | – | Almost zero activity | IC50 [1]: > 50 µM; IC50 [2, 11]: > 30 µM; IC50 ([2]; read-out: IC50 assessed by Calcein AM assay of surviving cells, RPMI 8226): 32 ± 0.6 µM; IC50 [3, 12]: > 50 µM; IC50 ([4]; Homo sapiens, Fibroblast): > 50 µM
CC(C)CCC[C@@H](C)[C@H]1CC[C@H]2[C@@H]3CC[C@H]4CCCC[C@]4(C)[C@H]3CC[C@]12C [5α-cholestane] | > 50 µM | – | – | – | Almost zero activity | IC50 [2, 13]: > 50 µM; IC50 [3, 14]: > 50 µM; IC50 [4, 15]: > 50 µM
CC(C)(O)CC[C@@H](O)[C@](C)(O)[C@H]1CC[C@@]2(O)C3=CC(=O)[C@@H]4C[C@@H](O)[C@@H](O)C[C@]4(C)[C@H]3CC[C@]12C [β-ecdyson] | > 50 µM | > 50 µM | > 50 µM | > 50 µM | – | cytotoxic / growth inhibitory activity in words ([6]; listed as β-ecdysone): Almost zero activity; also recorded: zero growth inhibitory activity
CC[C@H](CC[C@@H](C)[C@H]1CC[C@H]2[C@@H]3CC=C4C[C@@H](O)CC[C@]4(C)[C@H]3CC[C@]12C)C(C)C [Sitosterol] | > 50 µM | 32 ± 1.6 µM | > 50 µM | > 50 µM | Almost zero activity | –
CC[C@@H](C(C)C)[C@@H](O)[C@H](O)[C@@H](C)[C@H]1CCC2C3COC(=O)C4C[C@H](O)[C@H](O)C[C@]4(C)C3CC[C@@]21C (some centres unmarked) [Brassinosteroid 2] | 48 ± 1.3 µM | – | – | – | – | IC50 [2, 13]: > 50 µM; IC50 [3, 14]: > 50 µM; IC50 [4, 15]: > 50 µM
CC(C)[C@H](C)[C@@H](O)[C@H](O)[C@@H](C)[C@H]1CC[C@H]2[C@@H]3CC(=O)[C@H]4C[C@H](O)[C@H](O)C[C@]4(C)[C@H]3CC[C@]12C [Brassinosteroid 8, Castasterone] | – | – | – | – | high cytotoxicity | –
CC(C)[C@H](C)[C@@H](O)[C@H](O)[C@@H](C)[C@H]1CCC2C3CC(=O)C4C[C@H](O)[C@H](O)C[C@]4(C)C3CC[C@@]21C (some centres unmarked) [Brassinosteroid 8] | 16 ± 5.3 µM | – | – | – | – | IC50 [2, 13]: 33 ± 1.3 µM; IC50 [3, 14]: > 50 µM; IC50 [4, 15]: > 50 µM
CC[C@@H](C(C)C)[C@H](O)[C@@H](O)[C@@H](C)[C@H]1CC[C@H]2[C@@H]3COC(=O)[C@H]4C[C@H](O)[C@H](O)C[C@]4(C)[C@H]3CC[C@]12C [22S,23S-28-Homobrassinolide] | 35 ± 2.2 µM | 31 ± 7.3 µM | > 50 µM | > 50 µM | – | IC50 ([6]; range over RPMI 8226 and CEM values of Table 1): 31 to 35 µM
CC(C)[C@H](C)[C@@H](O)[C@H](O)[C@@H](C)[C@H]1CCC2C3CC(=O)C4C[C@H](O)[C@@H](O)C[C@]4(C)C3CC[C@@]21C (some centres unmarked) [Brassinosteroid 16] | > 50 µM | > 50 µM | > 50 µM | > 50 µM | – | –
CC(C)CCC[C@@H](C)[C@H]1CC[C@H]2[C@@H]3CC=C4C[C@@H](O)CC[C@]4(C)[C@H]3CC[C@]12C [Cholesterol] | > 50 µM | 38 ± 2.9 µM | – | – | – | IC50 [2, 13]: > 30 µM; IC50 [3, 14]: > 50 µM; IC50 [4, 15]: > 50 µM
CC(C)[C@H](C)[C@@H](O)[C@H](O)[C@@H](C)[C@H]1CCC2C3COC(=O)C4C[C@H](O)[C@H](O)C[C@]4(C)C3CC[C@@]21C (some centres unmarked) [Brassinosteroid 1] | – | – | – | – | – | IC50 [1]: > 50 µM; IC50 [2, 11]: > 50 µM; IC50 [3, 12]: > 50 µM; IC50 ([4]; Homo sapiens, Fibroblast): > 50 µM
CC(C)[C@@H](C)/C=C/[C@@H](C)[C@H]1CC[C@H]2[C@@H]3CC=C4C[C@@H](O)CC[C@]4(C)[C@H]3CC[C@]12C [Brassicasterol] | > 50 µM | > 50 µM | > 50 µM | > 50 µM | Almost zero activity | –
